From paper PMC4923153, “Protection of Primary Dopaminergic Midbrain Neurons by GPR139 Agonists Supports Different Mechanisms of MPP^+ and Rotenone Toxicity” (Frontiers in Cellular Neuroscience, 2016)

Assays:
[1] = test system: primary DA midbrain neurons; assay: Protection of primary DA midbrain neurons against MPP+ toxicity (TH-positive neuron count); format: cell-based, mice; conditions: 1 μM MPP+ 24 h
Method: Experiments were conducted in accordance with the ethical guidelines of H. Lundbeck A/S and the Danish legislation of animal use for scientific procedures. Cell culture was basically performed as described (Nagel et al., [2008]), with few modifications. Briefly, the mesencephalon floor was dissected from embryonic day (E) 13 mice, tissue pieces collected in HBBS, transferred to 0.1% trypsin, 0.05% DNAse (Sigma-Aldrich DN25–1G) and incubated at 37°C in a humidified atmosphere with 5% CO2 for 20 min; washed in DNAse, homogenized and centrifuged at 200× g, resuspended in medium (DMEM (Gibco 41965–039), 10% FCS, 1% P/S (Gibco, 15140–122), l.5% HEPES (Gibco, 15630–056), 1% Sodium Pyruvate (Gibco, 11360–039)) and plated on poly-L-lysine coated 96-well dishes. The medium was switched to neurobasal medium after 90 min (neurobasal (Gibco 21103–049) with 1% P/S, 2% B27 (Gibco, 17504–044), 1.25% 0.5 mM L-glutamine (Gibco, 25030–024)). After 6 days in vitro (DIV), cultures were treated with 1 μM of three different GPR139 agonists and in some experiments, concomitantly, with 10 μM of the antagonist for1 h, before exposing them to 0–1 μM MPP^+, 0–50 μM 6-OHDA or 0–100 nM rotenone for 24 h. For the MPP^+ treated cultures, it was also tested whether the effect of the GPR139 agonists could be blocked by concomitantly applying 10 μM GPR139 antagonist (IC50 3 μM). Subsequently, cells were fixed in 4% PFA/PBS for 10 min, washed with PBS, incubated in 0.5% BSA/0.1% Triton-X/5% porcine serum for 20 min, and incubated for 24 h in rabbit anti-tyrosine hydroxylase antibodies (1:1000 in PBS, Millipore AB152); washed 2 × 5 min in PBS. Secondary antibodies (Alexa 488 rabbit) were applied 1:200 in PBS with 0.2 μg/ml Hoechst dye for 1 h and washed 2 × 5 min in PBS. One drop of DAKO fluorescent mounting medium were applied into each well. Plates were stored at 4°C until tyrosine-hydroxylase-positive (TH-positive) neurons were counted using a Thermo Scientific Cellomics® ArrayScan® VTI HCS Reader. Results were normalized against control condition and compared. Experiments were only included in the evaluation if at least 30% cell death was induced at the highest toxin concentration compared to non-treated control wells. To ensure that only healthy primary cultures were assessed, we furthermore excluded experiments with total cell counts below Mean minus standard deviation (SD) of the summarized experiments. […]
To examine whether GPR139 agonists protect against toxin-induced DA cell death, we first treated cultured DA midbrain neurons with the GPR139 agonists and MPP^+ . Subsequently, we determined survival of TH-positive neurons.
Figure 8 Three different GPR139 surrogate agonists protect primary dopaminergic (DA) midbrain neurons against 1-methyl-4-phenyl-pyridinium ionMPP^+ toxicity. […] TH-positive neurons were counted and normalized to numbers under control conditions. […] Each data point is calculated from 12 (0 μM and 1 μM MPP^+ concentrations); 4 (0.125 μM); 7 (0.25 μM); or 8 (0.5 μM) independent measurements.
Primary midbrain cultures were pretreated with the indicated amount of GPR139 agonist compound 3 and with either vehicle ( [drawing 5] ), or 1 μM MPP^+ ( [drawing 6] ); or MPP^+ with 10 μM of the antagonist compound 4 ( [drawing 7] ), or with the antagonist compound 4 alone ( [drawing 8] ). The number of TH-positive neurons was determined 24 h later and normalized to control conditions. […]

[2] = test system: primary DA midbrain neurons; assay: Protection of primary DA midbrain neurons against 6-OHDA toxicity (TH-positive neuron count); format: cell-based, mice; conditions: 1 μM agonist 1 h, 0-50 μM 6-OHDA 24 h
Method: (§1) Experiments were conducted in accordance with the ethical guidelines of H. Lundbeck A/S and the Danish legislation of animal use for scientific procedures. Cell culture was basically performed as described (Nagel et al., [2008]), with few modifications. […] Plates were stored at 4°C until tyrosine-hydroxylase-positive (TH-positive) neurons were counted using a Thermo Scientific Cellomics® ArrayScan® VTI HCS Reader. […] To ensure that only healthy primary cultures were assessed, we furthermore excluded experiments with total cell counts below Mean minus standard deviation (SD) of the summarized experiments. […]
Neuronal midbrain cultures were pretreated with 1 μM of either one of the agonists compound 1 ( [drawing 9] ), compound 2 ( [drawing 10] ), or compound 3 ( [drawing 11] ), or vehicle ( [drawing 12] ) for 1 h, followed by treatment with the indicated concentrations of 6-hydroxydopamine (6-OHDA) for 24 h. TH-positive neurons were counted and normalized to control numbers.

[3] = test system: primary DA midbrain neurons; assay: Protection of primary DA midbrain neurons against rotenone toxicity (TH-positive neuron count); format: cell-based, mice; conditions: 1 μM agonist 1 h, 0-100 nM rotenone 24 h, n = 4
Method: as §1
Mesencephalic cultures were treated with 1 μM of either one of the GPR139 agonists compound 1 ( [drawing 13] ), compound 2 ( [drawing 14] ), or compound 3 ( [drawing 15] ), or vehicle ( [drawing 16] ) for 1 h before exposing them to 0–100 nM of rotenone. […] TH-positive neurons were counted and normalized to control numbers (100%).

[4] = target: norepinephrine transporter (Homo sapiens, UniProt P23975); assay: Inhibition of binding to the norepinephrine transporter (cross reactivity); conditions: concentration not given
Method: None of the compounds were useful in vivo tools due to their unfavorable ADME properties including low whole brain exposure and brain/plasma ratio (Shi et al., [2011]). Cross reactivity with the DAT or the norepinephrine transporter was determined as described (Shi et al., [2011]).
As both 6-OHDA and MPP^+ are taken up via the DAT, it was not likely that the agonists mediated their protection against MPP^+ by merely blocking the DAT. However, to further exclude the possibility that the protection against MPP^+ by the agonist compound 3 is mediated by blocking MPP^+ uptake, rather than signaling through GPR139, DA and noradrenaline uptake in the presence of the agonist was tested. […] Ten micrometres (10 μM) compound 1 inhibited binding to the DAT or the norepinephrine transporter by 4% or −8%, respectively (Shi et al., [2011]) compound 2 inhibited binding to the DAT or the norepinephrine transporter 2% or −4%, respectively.

norepinephrine transporter, sequence (P23975 whole entry, species assumed): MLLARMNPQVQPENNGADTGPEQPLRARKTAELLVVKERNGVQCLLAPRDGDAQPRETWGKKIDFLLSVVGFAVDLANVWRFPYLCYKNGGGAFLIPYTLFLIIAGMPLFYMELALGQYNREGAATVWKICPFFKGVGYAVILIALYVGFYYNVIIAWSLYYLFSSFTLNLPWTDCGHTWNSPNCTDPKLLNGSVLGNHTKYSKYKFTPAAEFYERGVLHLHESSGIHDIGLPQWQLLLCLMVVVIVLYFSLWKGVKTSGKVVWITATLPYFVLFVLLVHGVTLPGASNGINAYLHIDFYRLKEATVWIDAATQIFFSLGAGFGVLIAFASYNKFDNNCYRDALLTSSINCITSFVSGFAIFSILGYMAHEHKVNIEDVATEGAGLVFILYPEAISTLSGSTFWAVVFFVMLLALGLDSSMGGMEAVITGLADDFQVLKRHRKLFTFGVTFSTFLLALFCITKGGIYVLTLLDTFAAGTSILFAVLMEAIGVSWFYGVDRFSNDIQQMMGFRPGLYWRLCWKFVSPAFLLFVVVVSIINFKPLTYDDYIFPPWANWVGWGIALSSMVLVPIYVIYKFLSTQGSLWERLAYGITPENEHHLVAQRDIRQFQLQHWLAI

CN(C)C1CCN(C(=O)CNC(=O)Cc2cccc3ccccc23)C1 (centres unmarked) [compound 2, N-[2-(3-Dimethylamino-pyrrolidin-1-yl)-2-oxo-ethyl]-2-Naphthalen-1-yl-acetamide]
protection against MPP+ toxicity ([1]; 1 μM agonist 1 h, p ≤ 0.05 vs vehicle): significant
cells killed by 1 μM MPP+ that were rescued ([1]; 1 μM compound pre-incubation 1 h, TH-positive neurons): 40.5%
protection against 6-OHDA toxicity [2]: do not protect
protection against rotenone toxicity [3]: do not protect
inhibition of binding to the norepinephrine transporter [4]: −4%
